Measured values reported in patent US9462805B2, “Herbicide-resistant proteins, encoding genes, and uses thereof” (Beijing Dabeinong Technology Group Co., Ltd., priority 2012, dated 2016).

What was measured:
[1] = system: corn plants transfected with 24DT02 added nucleotide sequence; assay: Herbicide-resistance effect test of transgenic corn plants (added 24DT02; strains S8, S9); format: in vivo, maize; details: 8960 g ae/ha sprayed, 21 days after spraying; for Abnormal development of prop roots / Normal development of prop roots: number of plants
Protocol: (§1) Herbicide resistance effects tests to 2,4-D dimethyl ammonium salt and agroxone of maize plants containing 24DT02 nucleotide sequence, 24DT02 substituted nucleotide sequence, 24DT02 truncated nucleotide sequence, 24DT02 added nucleotide sequence, control nucleotide sequence respectively and wild type maize plants (stages V3-V4) were performed respectively.
(§2) Maize plants containing 24DT02 nucleotide sequence, 24DT02 substituted nucleotide sequence, 24DT02 truncated nucleotide sequence, 24DT02 added nucleotide sequence, control nucleotide sequence respectively and wild type maize plants were taken and spayed with 2,4-D dimethyl ammonium salt (8960 g ae/ha, 16-folds concentration in field), agroxone (8960 g ae/ha, 16-folds concentration in field) and blank solvent (water) respectively. Prop root development was counted 21 days after spaying. Three strains (S1, S2, and S3) of corn plants transfected with 24DT02 nucleotide sequence, two strains (S4 and S5) of corn plants transfected with 24DT02 substituted nucleotide sequence, two strains (S6 and S7) of corn plants transfected with 24DT02 truncated nucleotide sequence, two strains (S8 and S9) of corn plants transfected with 24DT02 added nucleotide sequence, two strains (S10 and S11) of corn plants transfected with control nucleotide sequence and 1 strain of wild type (CK) corn were selected and 10-15 plants from each stain were tested.

[2] = system: corn plants transfected with 24DT02 nucleotide sequence; assay: Herbicide-resistance effect test of transgenic corn plants (24DT02; strains S1-S3); format: in vivo, maize; details: 21 days after spraying; for Normal development of prop roots / Abnormal development of prop roots: number of plants
Protocol: as §1, §2

[3] = system: Arabidopsis T1 plants transformed with 24DT02 nucleotide sequence; assay: Herbicide resistance effect test of transgenic Arabidopsis T1 plants (24DT02); format: in vivo, Arabidopsis thaliana; details: number of T1 plants, genotype 24DT02; for Highly resistant: 560 g ae/ha (1-fold field concentration) sprayed, growth consistent with blank solvent 7 days after spraying; for Moderately resistant / Non-resistant / Lowly resistant: 560 g ae/ha sprayed; for Moderately resistant: curly rosette leaves 7 days after spraying; for Non-resistant: dead 14 days after spraying; for Lowly resistant: incapable of bolting 14 days after spraying
Protocol: (§3) On 7 days after planting (DAP) and 11 DAP respectively, the T1 plants (cotyledon stage and 2-4 leaves stage, respectively) were sprayed with 0.2% of Liberty herbicide solution (200 g ai/L glufosinate-ammonium) using DeVilbiss compressed air nozzle at a spraying volume of 10 ml/disc (703 L/ha) so as to provide effective amount of glufosinate-ammonium (280 g ai/ha) for each application. The survival plants (actively growing plants) were verified 4 to 7 days after the last spraying and transferred into the square pot (7 cm×7 cm) made from vermiculite and horses dung (3-5 plants per pot). The transplanted plants were covered with moisturizing mask for 3-4 days and placed in culture room at 22° C. or directly into the greenhouse as described above. Then the mask was removed and the plants were planted in greenhouse (22±5° C., 50±30% RH, 14 hours of lighting: 10 hours of darkness, minimum […] natural light+complement light) at least one day before testing the ability of 24DT02 to provide the resistance to phenoxy auxin herbicide.
(§4) 24DT02 gene was used to transform Arabidopsis for the first time. At first, T1 transformants were selected from the background of un-transformed seeds, using glufosinate-ammonium selection scheme. About 40000 T1 seeds were screened among which 195 strains of T1 generation positive transformants (PAT gene) were identified, i.e. the transformation efficiency was about 0.5%. Herbicide resistance effect tests to 2,4-D dimethyl ammonium salt and agroxone of Arabidopsis T1 plants transformed with 24DT02 nucleotide sequence, substituted 24DT02 nucleotide sequence, truncated 24DT02 nucleotide sequence, added 24DT02 nucleotide sequence, control nucleotide sequence respectively and wild-type Arabidopsis plants were performed after 18 days of planting.
(§5) Arabidopsis T1 plants transformed with 24DT02 nucleotide sequence, substituted 24DT02 nucleotide sequence, truncated 24DT02 nucleotide sequence, added 24DT02 nucleotide sequence and control nucleotide sequence respectively and wild-type Arabidopsis plants were sprayed with 2,4-D dimethyl ammonium salt (560 g ae/ha, 1-fold concentration in field), agroxone (560 g ae/ha, 1-fold concentration in field) and blank solvent (water). Resistance conditions of the plants were counted 7 days and 14 days after spraying. Plants with growth conditions consistent with blank solvent (water) 7 days after spaying were classified as highly resistant plants; Plants with curly rosette leaves 7 days after spaying were classified as moderately resistant plants; Plants incapable of bolting 14 days after spaying were classified as low-resistant plants and the dead plants 14 days after spaying were classified as non-resistant plants. Because each Arabidopsis T1 plant was an independent transformation event, significant differences of individual T1 responses were expected under a given dose.

[4] = system: Arabidopsis T1 plants transformed with control nucleotide sequence; assay: Herbicide resistance effect test of Arabidopsis T1 plants (control sequence); format: in vivo, Arabidopsis thaliana; details: number of T1 plants, 560 g ae/ha sprayed; for Highly resistant: genotype Control (control sequence), growth consistent with blank solvent 7 days after spraying; for Moderately resistant / Non-resistant / Lowly resistant: genotype Control; for Moderately resistant: curly rosette leaves 7 days after spraying; for Non-resistant: dead 14 days after spraying; for Lowly resistant: incapable of bolting 14 days after spraying
Protocol: as §3, §4, §5

[5] = system: wild-type Arabidopsis plants; assay: Herbicide resistance effect test of wild-type Arabidopsis plants; format: in vivo, Arabidopsis thaliana; details: number of plants, genotype Wild, 560 g ae/ha sprayed; for Moderately resistant: curly rosette leaves 7 days after spraying; for Non-resistant: dead 14 days after spraying; for Highly resistant: growth consistent with blank solvent 7 days after spraying; for Lowly resistant: incapable of bolting 14 days after spraying
From the text: 24DT02 gene was used to transform Arabidopsis for the first time. At first, T1 transformants were selected from the background of un-transformed seeds, using glufosinate-ammonium selection scheme. About 40000 T1 seeds were screened among which 195 strains of T1 generation positive transformants (PAT gene) were identified, i.e. the transformation efficiency was about 0.5%. Herbicide resistance effect tests to 2,4-D dimethyl ammonium salt and agroxone of Arabidopsis T1 plants transformed with 24DT02 nucleotide sequence, substituted 24DT02 nucleotide sequence, truncated 24DT02 nucleotide sequence, added 24DT02 nucleotide sequence, control nucleotide sequence respectively and wild-type Arabidopsis plants were performed after 18 days of planting. Arabidopsis T1 plants transformed with 24DT02 nucleotide sequence, substituted 24DT02 nucleotide sequence, truncated 24DT02 nucleotide sequence, added 24DT02 nucleotide sequence and control nucleotide sequence respectively and wild-type Arabidopsis plants were sprayed with 2,4-D dimethyl ammonium salt (560 g ae/ha, 1-fold concentration in field), agroxone (560 g ae/ha, 1-fold concentration in field) and blank solvent (water). Resistance conditions of the plants were counted 7 days and 14 days after spraying. Plants with growth conditions consistent with blank solvent (water) 7 days after spaying were classified as highly resistant plants; Plants with curly rosette leaves 7 days after spaying were classified as moderately resistant plants; Plants incapable of bolting 14 days after spaying were classified as low-resistant plants and the dead plants 14 days after spaying were classified as non-resistant plants. Because each Arabidopsis T1 plant was an independent transformation event, significant differences of individual T1 responses were expected under a given dose.

[6] = corn strain S1 (24DT02), 8960 g ae/ha sprayed
[7] = corn strain S2 (24DT02), 8960 g ae/ha sprayed
[8] = corn strain S3 (24DT02), 8960 g ae/ha sprayed
[9] = corn strain S1 (24DT02), 8960 g ae/ha (16-fold field concentration) sprayed at V3-V4

SMILES | Ratio of the normally developed prop roots ([1]; corn strain S8 (added 24DT02)) | Ratio of the normally developed prop roots ([1]; corn strain S9 (added 24DT02)) | Abnormal development of prop roots ([1]; corn strain S8 (added 24DT02)) | Normal development of prop roots ([1]; corn strain S8 (added 24DT02)) | Abnormal development of prop roots ([1]; corn strain S9 (added 24DT02)) | Normal development of prop roots ([1]; corn strain S9 (added 24DT02)) | Ratio of the normally developed prop roots [2, 6] | Ratio of the normally developed prop roots [2, 7] | Ratio of the normally developed prop roots [2, 8] | Normal development of prop roots [2, 9] | Abnormal development of prop roots [2, 6] | Abnormal development of prop roots [2, 7] | Normal development of prop roots [2, 7] | Abnormal development of prop roots [2, 8] | Normal development of prop roots [2, 8] | Highly resistant [3] | Moderately resistant [3] | Non-resistant [3] | Lowly resistant [3] | Highly resistant [4] | also measured
CNC.O=C(O)COc1ccc(Cl)cc1Cl [2,4-D dimethyl ammonium salt] | 80.00% | 78.57% | 3 | 12 | 3 | 11 | 81.25% | 91.67% | 85.71% | 13 | 3 | 1 | 11 | 2 | 12 | 9 | 4 | 5 | 0 | 0 | Moderately resistant [4]: 0; Non-resistant [4]: 18; Lowly resistant [4]: 0; Moderately resistant [5]: 0; Non-resistant [5]: 20; Highly resistant [5]: 0; Lowly resistant [5]: 0
Cc1cc(Cl)ccc1OCC(=O)O [agroxone] | 86.67% | 84.62% | 2 | 13 | 2 | 11 | 87.50% | 100.00% | 92.31% | 14 | 2 | 0 | 12 | 1 | 12 | 8 | 6 | 4 | 2 | 0 | Moderately resistant [4]: 0; Non-resistant [4]: 17; Lowly resistant [4]: 0; Moderately resistant [5]: 0; Non-resistant [5]: 16; Highly resistant [5]: 0; Lowly resistant [5]: 0
